Values of other authors as cited in PubChem BioAssay AID1259409 (Chemical Carcinogenesis Research Information System (CCRIS), 2018).

Tested on: rodent chemically induced tumor inhibition, incidence and multiplicity
Assay: CCRIS tumor inhibitor studies

C=C1CC[C@H](O)C/C1=C/C=C1\CCC[C@]2(C)[C@@H]([C@H](C)CC[C@@H](O)C(C)(C)O)CC[C@@H]12
tumour outcome (control, treated, inhibition, significance) (Carcinogen: N-N-DIETHYLNITROSAMINE [55-18-5], N-METHYL-N-NITROSOUREA [684-93-5], N,N'-DIMETHYLHYDRAZINE [540-73-8], N-BUTYL-N-(4-HYD, Carcinogen: N-N-DIETHYLNITROSAMINE [55-18-5], N-METHYL-N-NITROSOUREA [684-93-5], N,N'-DIMETHYLHYDRAZINE [540-73-8], N-BUTYL-N-(4-HYD, Dose [Inhibitor]: 1 PPM IN DIET FOR 25 WK BEGINNING 1 WK POST LAST CARCINOGEN DOSE (STUDY DURATION: 30 WK), Route [Inhibitor]: ORAL, Species: RAT, Strain/Sex: F344/MALE, Target Tissue: Type of Lesion: COLON: ADENOCARCINOMA, Dose [Carcinogen]: 100 MG/KG BW DEN IP ONCE ON DAY 0, 20 MG/KG BW MNU IP 4X ON DAYS 2, 5, 8, 11, 40 MG/KG BW DMH SC ON DAYS 14, 17, 20, 23;, Dose [Carcinogen]: 100 MG/KG BW DEN IP ONCE ON DAY 0, 20 MG/KG BW MNU IP 4X ON DAYS 2, 5, 8, 11, 40 MG/KG BW DMH SC ON DAYS 14, 17, 20, 23;, Promoter: NONE): 14/18 (77.8%), 10/14 (71.4%), 8%, not significant
tumour outcome (control, treated, inhibition, significance) (Carcinogen: N-N-DIETHYLNITROSAMINE [55-18-5], N-METHYL-N-NITROSOUREA [684-93-5], N,N'-DIMETHYLHYDRAZINE [540-73-8], N-BUTYL-N-(4-HYD, Carcinogen: N-N-DIETHYLNITROSAMINE [55-18-5], N-METHYL-N-NITROSOUREA [684-93-5], N,N'-DIMETHYLHYDRAZINE [540-73-8], N-BUTYL-N-(4-HYD, Dose [Inhibitor]: 1 PPM IN DIET FOR 25 WK BEGINNING 1 WK POST LAST CARCINOGEN DOSE (STUDY DURATION: 30 WK), Route [Inhibitor]: ORAL, Species: RAT, Strain/Sex: F344/MALE, Target Tissue: Type of Lesion: COLON: ADENOMA, Dose [Carcinogen]: 100 MG/KG BW DEN IP ONCE ON DAY 0, 20 MG/KG BW MNU IP 4X ON DAYS 2, 5, 8, 11, 40 MG/KG BW DMH SC ON DAYS 14, 17, 20, 23;, Dose [Carcinogen]: 100 MG/KG BW DEN IP ONCE ON DAY 0, 20 MG/KG BW MNU IP 4X ON DAYS 2, 5, 8, 11, 40 MG/KG BW DMH SC ON DAYS 14, 17, 20, 23;, Promoter: NONE): 6/18 (33.3%), 3/14 (21.4%), 36%, not significant
tumour outcome (control, treated, inhibition, significance) (Carcinogen: N-N-DIETHYLNITROSAMINE [55-18-5], N-METHYL-N-NITROSOUREA [684-93-5], N,N'-DIMETHYLHYDRAZINE [540-73-8], N-BUTYL-N-(4-HYD, Carcinogen: N-N-DIETHYLNITROSAMINE [55-18-5], N-METHYL-N-NITROSOUREA [684-93-5], N,N'-DIMETHYLHYDRAZINE [540-73-8], N-BUTYL-N-(4-HYD, Dose [Inhibitor]: 5 PPM IN DIET FOR 25 WK BEGINNING 1 WK POST LAST CARCINOGEN DOSE (STUDY DURATION: 30 WK), Route [Inhibitor]: ORAL, Species: RAT, Strain/Sex: F344/MALE, Target Tissue: Type of Lesion: COLON: ADENOCARCINOMA, Dose [Carcinogen]: 100 MG/KG BW DEN IP ONCE ON DAY 0, 20 MG/KG BW MNU IP 4X ON DAYS 2, 5, 8, 11, 40 MG/KG BW DMH SC ON DAYS 14, 17, 20, 23;, Dose [Carcinogen]: 100 MG/KG BW DEN IP ONCE ON DAY 0, 20 MG/KG BW MNU IP 4X ON DAYS 2, 5, 8, 11, 40 MG/KG BW DMH SC ON DAYS 14, 17, 20, 23;, Promoter: NONE): 14/18 (77.8%), 5/14 (35.7%), 54%, p<0.05
tumour outcome (control, treated, inhibition, significance) (Carcinogen: N-N-DIETHYLNITROSAMINE [55-18-5], N-METHYL-N-NITROSOUREA [684-93-5], N,N'-DIMETHYLHYDRAZINE [540-73-8], N-BUTYL-N-(4-HYD, Carcinogen: N-N-DIETHYLNITROSAMINE [55-18-5], N-METHYL-N-NITROSOUREA [684-93-5], N,N'-DIMETHYLHYDRAZINE [540-73-8], N-BUTYL-N-(4-HYD, Dose [Inhibitor]: 5 PPM IN DIET FOR 25 WK BEGINNING 1 WK POST LAST CARCINOGEN DOSE (STUDY DURATION: 30 WK), Route [Inhibitor]: ORAL, Species: RAT, Strain/Sex: F344/MALE, Target Tissue: Type of Lesion: COLON: ADENOMA, Dose [Carcinogen]: 100 MG/KG BW DEN IP ONCE ON DAY 0, 20 MG/KG BW MNU IP 4X ON DAYS 2, 5, 8, 11, 40 MG/KG BW DMH SC ON DAYS 14, 17, 20, 23;, Dose [Carcinogen]: 100 MG/KG BW DEN IP ONCE ON DAY 0, 20 MG/KG BW MNU IP 4X ON DAYS 2, 5, 8, 11, 40 MG/KG BW DMH SC ON DAYS 14, 17, 20, 23;, Promoter: NONE): 6/18 (33.3%), 0/14 (0.0%), 100%, not significant

CC(C)(C)C1=CC(=O)C=C(C(C)(C)C)C1=O
tumour outcome (control, treated, inhibition, significance) (Carcinogen: 7,12-DIMETHYLBENZ[A]ANTHRACENE, 57-97-6, Dose [Inhibitor]: 0, 200 MG/KG BW/D FOR 3 WK BEGINNING 2 WK PRIOR TO CARCINOGEN DOSE (STUDY DURATION: 24 WK), Route [Inhibitor]: INTRAPERITONEAL, Species: RAT, Strain/Sex: SPRAGUE-DAWLEY/FEMALE, Target Tissue: Type of Lesion: MAMMARY GLAND: TUMOR, Dose [Carcinogen]: 33.3 MG/KG BW IN 0.25 ML CORN OIL ONCE AT 50 D OF AGE, Promoter: NONE USED): 91%, 68%, 25%, not calculated

Cc1c[nH]c(=O)[nH]c1=O
tumour outcome (control, treated, inhibition, significance) (Carcinogen: 7,12-DIMETHYLBENZ[A]ANTHRACENE, 57-97-6, Dose [Inhibitor]: 1% IN 20% PROTEIN DIET AND 0.5% IN DRINKING WATER (STUDY DURATION: 150 D), Route [Inhibitor]: ORAL, Species: RAT, Strain/Sex: STRAIN-CB/FEMALE, Target Tissue: Type of Lesion: MAMMARY GLAND: TUMOR, Dose [Carcinogen]: 15 MG IN 1 ML ARACHIS OIL TWICE 14 D APART, Promoter: NONE USED): 11/11 (100%), 6/11 (55%), 45%, not calculated
tumour outcome (control, treated, inhibition, significance) (Carcinogen: 7,12-DIMETHYLBENZ[A]ANTHRACENE, 57-97-6, Dose [Inhibitor]: 1.5% IN 20% PROTEIN DIET (STUDY DURATION: 100 D), Route [Inhibitor]: ORAL, Species: RAT, Strain/Sex: STRAIN-CB/FEMALE, Target Tissue: Type of Lesion: MAMMARY GLAND: TUMOR, Dose [Carcinogen]: 15 MG IN 1 ML ARACHIS OIL THREE DOSES GIVEN 1/2 WK, Promoter: NONE USED): 18/18 (100%), 16/20 (80%), 20%, not calculated
tumour outcome (control, treated, inhibition, significance) (Carcinogen: NONE USED, Dose [Inhibitor]: 0.4% IN DRINKING WATER, STARTING AT 7-9 WK OF AGE AND CONTINUING FOR DURATION OF STUDY (STUDY DURATION: 10-12 MO), Route [Inhibitor]: ORAL, Species: MOUSE, Strain/Sex: STRAIN-A/MALE, FEMALE, Target Tissue: Type of Lesion: LUNG: ADENOMA, Promoter: NONE USED): 48%, 17%, 65%, p 0.02
